From PubChem BioAssay (NCI)
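48-hour exposure; five concentrations; linearly interpolated endpoints. Abbreviation: GI50, concentration required for 50% inhibition of growth. TGI marks complete inhibition of growth.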

Experiments:
Assay in all cases: growth of human tumour cells (NCI), 48 h
786-0 renal = tested on: 786-0 renal
A498 renal = tested on: A498 renal
A549 NSCLC = tested on: A549 NSCLC
ACHN renal = tested on: ACHN renal
BT-549 breast = tested on: BT-549 breast
CAKI-1 renal = tested on: CAKI-1 renal
CCRF-CEM leukemia = tested on: CCRF-CEM leukemia
COLO 205 colon = tested on: COLO 205 colon
DU-145 prostate = tested on: DU-145 prostate
HCC-2998 colon = tested on: HCC-2998 colon
HCT-116 colon = tested on: HCT-116 colon
HCT-15 colon = tested on: HCT-15 colon
HL-60(TB) leukemia = tested on: HL-60(TB) leukemia
HOP-62 NSCLC = tested on: HOP-62 NSCLC
HOP-92 NSCLC = tested on: HOP-92 NSCLC
HS 578T breast = tested on: HS 578T breast
HT29 colon = tested on: HT29 colon
IGROV1 ovarian = tested on: IGROV1 ovarian
K-562 leukemia = tested on: K-562 leukemia
KM12 colon = tested on: KM12 colon
LOX IMVI melanoma = tested on: LOX IMVI melanoma
M14 melanoma = tested on: M14 melanoma
MALME-3M melanoma = tested on: MALME-3M melanoma
MCF7 breast = tested on: MCF7 breast
MDA-MB-231 breast = tested on: MDA-MB-231 breast
MDA-MB-435 = tested on: MDA-MB-435
MOLT-4 leukemia = tested on: MOLT-4 leukemia
NCI-H226 lung = tested on: NCI-H226 lung
NCI-H23 lung = tested on: NCI-H23 lung
NCI-H460 lung = tested on: NCI-H460 lung
NCI-H522 lung = tested on: NCI-H522 lung
NCI/ADR-RES ovarian = tested on: NCI/ADR-RES ovarian
OVCAR-3 ovarian = tested on: OVCAR-3 ovarian
OVCAR-4 ovarian = tested on: OVCAR-4 ovarian
OVCAR-5 ovarian = tested on: OVCAR-5 ovarian
OVCAR-8 ovarian = tested on: OVCAR-8 ovarian
PC-3 prostate = tested on: PC-3 prostate
RPMI-8226 leukemia = tested on: RPMI-8226 leukemia
RXF 393 renal = tested on: RXF 393 renal
SF-268 CNS = tested on: SF-268 CNS
SF-539 CNS = tested on: SF-539 CNS
SK-MEL-2 melanoma = tested on: SK-MEL-2 melanoma
SK-MEL-28 melanoma = tested on: SK-MEL-28 melanoma
SK-MEL-5 melanoma = tested on: SK-MEL-5 melanoma
SK-OV-3 ovarian = tested on: SK-OV-3 ovarian
SN12C renal = tested on: SN12C renal
SNB-19 CNS = tested on: SNB-19 CNS
SNB-75 CNS = tested on: SNB-75 CNS
SR leukemia = tested on: SR leukemia
SW-620 colon = tested on: SW-620 colon
T-47D breast = tested on: T-47D breast
TK-10 renal = tested on: TK-10 renal
U251 CNS = tested on: U251 CNS
UACC-257 melanoma = tested on: UACC-257 melanoma
UACC-62 melanoma = tested on: UACC-62 melanoma
UO-31 renal = tested on: UO-31 renal

SMILES: COc1ccc(-c2nc(-c3nc4ccc(Cl)cc4[nH]3)c3ccccn23)cc1
- GI50 (786-0 renal): 1.6 µM
- TGI (786-0 renal): 3.22 µM
- GI50 (A498 renal): 5.61 µM
- TGI (A498 renal): 29.2 µM
- GI50 (A549 NSCLC): 1.82 µM
- TGI (A549 NSCLC): 4.27 µM
- GI50 (ACHN renal): 1.86 µM
- TGI (ACHN renal): 3.75 µM
- GI50 (BT-549 breast): 2.74 µM
- TGI (BT-549 breast): 6.63 µM
- GI50 (CAKI-1 renal): 2.09 µM
- TGI (CAKI-1 renal): 5.03 µM
- GI50 (CCRF-CEM leukemia): 27.3 µM
- TGI (CCRF-CEM leukemia): > 100 µM
- GI50 (COLO 205 colon): 3.61 µM
- TGI (COLO 205 colon): 13.3 µM
- GI50 (DU-145 prostate): 3.27 µM
- TGI (DU-145 prostate): 11.1 µM
- GI50 (HCC-2998 colon): 18.6 µM
- TGI (HCC-2998 colon): > 100 µM
- GI50 (HCT-116 colon): 2.41 µM
- TGI (HCT-116 colon): 5.5 µM
- GI50 (HCT-15 colon): 3.89 µM
- TGI (HCT-15 colon): 64.3 µM
- GI50 (HL-60(TB) leukemia): 49.8 µM
- TGI (HL-60(TB) leukemia): > 100 µM
- GI50 (HOP-62 NSCLC): 1.96 µM
- TGI (HOP-62 NSCLC): 3.76 µM
- GI50 (HOP-92 NSCLC): 2.19 µM
- TGI (HOP-92 NSCLC): 6.09 µM
- GI50 (HS 578T breast): 2.76 µM
- TGI (HS 578T breast): 8.06 µM
- GI50 (HT29 colon): 3.66 µM
- TGI (HT29 colon): 14.2 µM
- GI50 (IGROV1 ovarian): 4.95 µM
- TGI (IGROV1 ovarian): 22.9 µM
- GI50 (K-562 leukemia): 5.4 µM
- TGI (K-562 leukemia): 80.1 µM
- GI50 (KM12 colon): 7.68 µM
- TGI (KM12 colon): > 100 µM
- GI50 (LOX IMVI melanoma): 2.85 µM
- TGI (LOX IMVI melanoma): 6.66 µM
- GI50 (M14 melanoma): 4.24 µM
- TGI (M14 melanoma): 18.4 µM
- GI50 (MALME-3M melanoma): 2.35 µM
- TGI (MALME-3M melanoma): 5.57 µM
- GI50 (MCF7 breast): 3.15 µM
- TGI (MCF7 breast): 16 µM
- GI50 (MDA-MB-231 breast): 2.77 µM
- TGI (MDA-MB-231 breast): 7.75 µM
- GI50 (MDA-MB-435): 2.3 µM
- TGI (MDA-MB-435): 7.64 µM
- GI50 (MOLT-4 leukemia): > 100 µM
- TGI (MOLT-4 leukemia): > 100 µM
- GI50 (NCI-H226 lung): 1.94 µM
- TGI (NCI-H226 lung): 4.46 µM
- GI50 (NCI-H23 lung): 7.52 µM
- TGI (NCI-H23 lung): 45.7 µM
- GI50 (NCI-H460 lung): 2.23 µM
- TGI (NCI-H460 lung): 5.29 µM
- GI50 (NCI-H522 lung): 4.24 µM
- TGI (NCI-H522 lung): 18.4 µM
- GI50 (NCI/ADR-RES ovarian): 2.78 µM
- TGI (NCI/ADR-RES ovarian): 9.2 µM
- GI50 (OVCAR-3 ovarian): 2.61 µM
- TGI (OVCAR-3 ovarian): 6.69 µM
- GI50 (OVCAR-4 ovarian): 1.89 µM
- TGI (OVCAR-4 ovarian): 4.74 µM
- GI50 (OVCAR-5 ovarian): 7.32 µM
- TGI (OVCAR-5 ovarian): 29.3 µM
- GI50 (OVCAR-8 ovarian): 2.4 µM
- TGI (OVCAR-8 ovarian): 6.69 µM
- GI50 (PC-3 prostate): 2.13 µM
- TGI (PC-3 prostate): 5.63 µM
- GI50 (RPMI-8226 leukemia): 3.55 µM
- TGI (RPMI-8226 leukemia): 58.3 µM
- GI50 (RXF 393 renal): 1.94 µM
- TGI (RXF 393 renal): 3.85 µM
- GI50 (SF-268 CNS): 2.93 µM
- TGI (SF-268 CNS): 9.07 µM
- GI50 (SF-539 CNS): 1.76 µM
- TGI (SF-539 CNS): 3.61 µM
- GI50 (SK-MEL-2 melanoma): 2.71 µM
- TGI (SK-MEL-2 melanoma): 8.76 µM
- GI50 (SK-MEL-28 melanoma): 2.14 µM
- TGI (SK-MEL-28 melanoma): 5.34 µM
- GI50 (SK-MEL-5 melanoma): 4.27 µM
- TGI (SK-MEL-5 melanoma): 27.8 µM
- GI50 (SK-OV-3 ovarian): 2.24 µM
- TGI (SK-OV-3 ovarian): 4.99 µM
- GI50 (SN12C renal): 3.75 µM
- TGI (SN12C renal): 17.8 µM
- GI50 (SNB-19 CNS): 3.6 µM
- TGI (SNB-19 CNS): 20.7 µM
- GI50 (SNB-75 CNS): 1.87 µM
- TGI (SNB-75 CNS): 3.94 µM
- GI50 (SR leukemia): 12.6 µM
- TGI (SR leukemia): > 100 µM
- GI50 (SW-620 colon): 4.07 µM
- TGI (SW-620 colon): 22.5 µM
- GI50 (T-47D breast): 3.66 µM
- TGI (T-47D breast): 20.2 µM
- GI50 (TK-10 renal): 2.01 µM
- TGI (TK-10 renal): 5.11 µM
- GI50 (U251 CNS): 3.16 µM
- TGI (U251 CNS): 11.3 µM
- GI50 (UACC-257 melanoma): 2.63 µM
- TGI (UACC-257 melanoma): 8.5 µM
- GI50 (UACC-62 melanoma): 4.89 µM
- TGI (UACC-62 melanoma): 20.9 µM
- GI50 (UO-31 renal): 1.74 µM
- TGI (UO-31 renal): 4.11 µM
